Results reported in publication PMC7034075, “Exploring structure-activity relationship of S-substituted 2-mercaptoquinazolin-4(3H)-one including 4-ethylbenzenesulfonamides as human carbonic anhydrase inhibitors” (Journal of Enzyme Inhibition and Medicinal Chemistry, 2020).
Read-outs that look alike come from different tables or passages of the source.

What was measured:
Experiment in all cases: stopped-flow CO2 hydrase assay
Assay type in all cases: biochemical
[1] = target: T1, hCA XII (Homo sapiens, UniProt O43570)
T1 construct: gene CA12; recombinant, obtained in-house
Description: stopped-flow CO2 hydrase assay on hCA XII

[2] = target: T2, hCA IX (Homo sapiens, UniProt Q16790)
T2 construct: gene CA9; recombinant, obtained in-house
Description: stopped-flow CO2 hydrase assay on hCA IX

[3] = target: T3, hCA I (Homo sapiens, UniProt P00915)
T3 construct: gene CA1; recombinant, obtained in-house
Description: stopped-flow CO2 hydrase assay on hCA I

[4] = target: T4, hCA II (Homo sapiens, UniProt P00918)
T4 construct: gene CA2; recombinant, obtained in-house
Description: stopped-flow CO2 hydrase assay on hCA II

[5] = CO2 hydration, mean of […] assays

T1 sequence (O43570 25-354): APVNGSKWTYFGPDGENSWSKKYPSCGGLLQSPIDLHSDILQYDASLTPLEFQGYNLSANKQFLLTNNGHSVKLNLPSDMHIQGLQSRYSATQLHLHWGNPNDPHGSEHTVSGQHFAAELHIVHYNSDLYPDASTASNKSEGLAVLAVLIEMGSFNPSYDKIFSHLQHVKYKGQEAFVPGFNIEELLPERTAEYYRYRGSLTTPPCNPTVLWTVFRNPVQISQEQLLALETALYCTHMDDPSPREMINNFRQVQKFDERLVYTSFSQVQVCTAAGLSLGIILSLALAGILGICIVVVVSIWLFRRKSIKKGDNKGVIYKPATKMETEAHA
T3 sequence (P00915 2-261): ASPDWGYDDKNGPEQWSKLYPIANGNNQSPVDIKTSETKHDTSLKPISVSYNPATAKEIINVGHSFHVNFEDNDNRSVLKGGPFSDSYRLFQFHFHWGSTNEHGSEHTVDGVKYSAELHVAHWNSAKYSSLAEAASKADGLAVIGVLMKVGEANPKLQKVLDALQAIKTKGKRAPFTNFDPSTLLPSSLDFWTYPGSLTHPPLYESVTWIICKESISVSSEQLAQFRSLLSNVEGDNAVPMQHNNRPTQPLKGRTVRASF

SMILES	Ki [1, 5]	Ki [2]	Ki [1]	Ki [2, 5]	Ki [3]	Ki [4]
NS(=O)(=O)c1ccc(CCn2c(SCc3ccc(F)cc3)nc3ccccc3c2=O)cc1 [compound 9, 4-(2-(2-((4-Fluorobenzyl)thio)-4-oxoquinazolin-3(4H)-yl)ethyl)benzenesulfonamide]	17.2 nM	28.9 nM				
NS(=O)(=O)c1ccc(CCn2c(SCc3ccc(Br)cc3)nc3ccccc3c2=O)cc1 [compound 6, 4-(2-(2-((4-Bromobenzyl)thio)-4-oxoquinazolin-3(4H)-yl)ethyl)benzenesulfonamide]		64.1 nM	57 nM			
NS(=O)(=O)c1ccc(CCn2c(SCc3ccc([N+](=O)[O-])cc3)nc3ccccc3c2=O)cc1 [compound 11, 4-(2-(2-((4-Nitrobenzyl)thio)-4-oxoquinazolin-3(4H)-yl)ethyl)benzenesulfonamide]			25.6 nM	19.3 nM		
NS(=O)(=O)c1ccc(CCn2c(SCc3ccc(Cl)cc3)nc3ccccc3c2=O)cc1 [compound 7, 4-(2-(2-((4-Chlorobenzyl)thio)-4-oxoquinazolin-3(4H)-yl)ethyl)benzenesulfonamide]		34.2 nM	65.6 nM			
NS(=O)(=O)c1ccc(CCn2c(SCc3ccccc3)nc3ccccc3c2=O)cc1 [compound 5, 4-(2-(2-(Benzylthio)-4-oxoquinazolin-3(4H)-yl)ethyl)benzenesulfonamide]		50.7 nM	38.4 nM			
CSc1nc2ccccc2c(=O)n1CCc1ccc(S(N)(=O)=O)cc1 [compound 2, 4-(2-(2-(Methylthio)-4-oxoquinazolin-3(4H)-yl)ethyl)benzenesulfonamide]		9.5 nM	3.1 nM			
Cc1ccc(CSc2nc3ccccc3c(=O)n2CCc2ccc(S(N)(=O)=O)cc2)cc1 [compound 10, 4-(2-(2-((4-Methylbenzyl)thio)-4-oxoquinazolin-3(4H)-yl)ethyl)benzenesulfonamide]		57.1 nM	28.2 nM			
N#Cc1ccc(CSc2nc3ccccc3c(=O)n2CCc2ccc(S(N)(=O)=O)cc2)cc1 [compound 8, 4-(2-(2-((4-Cyanobenzyl)thio)-4-oxoquinazolin-3(4H)-yl)ethyl)benzenesulfonamide]		47.3 nM	17.6 nM			
CCSc1nc2ccccc2c(=O)n1CCc1ccc(S(N)(=O)=O)cc1 [compound 3, 4-(2-(2-(Ethylthio)-4-oxoquinazolin-3(4H)-yl)ethyl)benzenesulfonamide]		7.1 nM	3.9 nM			
NS(=O)(=O)c1ccc(CCn2c(SCCCN3C(=O)c4ccccc4C3=O)nc3ccccc3c2=O)cc1 [compound 13, 4-(2-(2-((3-(1,3-Dioxoisoindolin-2-yl)propyl)thio)-4-oxoquinazolin-3(4H)-yl)ethyl)benzenesulfonamide]		93.6 nM	71.4 nM		321 nM	86.6 nM
NS(=O)(=O)c1ccc(CCn2c(SCCN3CCCCC3)nc3ccccc3c2=O)cc1 [compound 12, 4-(2-(4-Oxo-2-((2-(piperidin-1-yl)ethyl)thio)quinazolin-3(4H)-yl)ethyl)benzenesulfonamide]		22.4 nM	20.2 nM		532 nM	
N#CCSc1nc2ccccc2c(=O)n1CCc1ccc(S(N)(=O)=O)cc1 [compound 4, 4-(2-(2-((Cyanomethyl)thio)-4-oxoquinazolin-3(4H)-yl)ethyl)benzenesulfonamide]		12.6 nM	8.6 nM			
